Measurements published in publication PMC10578023 (Cell Communication and Signaling : CCS, 2023).

Tests used:
human monocytes = test: IFNα-induced differentiation of human monocytes to dendritic cells (CD80, CD83, CD86); type: cell-based; settings: 5, 20 or 100 nM, 6 days
Procedure: First, monocytes in human PBMCs were isolated using an EasySep™ Human CD14 Positive Selection Kit II (17858; Stemcell Technologies, Vancouver, Canada). […] The media were half-changed on days 3 and 5. On day 6, cells were collected and stained with BV421 aqua fluorescent reactive dye (L34966A; Invitrogen), FITC mouse anti-human CD80 (555683; BD Biosciences), PE mouse anti-human CD86 (560957; BD Biosciences) or BUV737 mouse anti-human CD83 (612823; BD Biosciences) antibodies for 20 min. After staining, cells were washed twice and analyzed by flow cytometry.

TYK2/JAK1 [1] = test: IL-23-induced pSTAT3 in human Th17 cells; type: cell-based
Procedure: Human naïve CD4^+ T cells were separated using a human naïve CD4^+ T-cell isolation kit (StemCell, #17,852), and then cells were stimulated with anti-CD3 monoclonal antibody and anti-CD28 monoclonal antibody for 7–10 days under the following Th17-skewing treatments: IL-6, IL-23, IL-1β and transforming growth factor-β. Half of the medium was replaced with fresh medium containing a stimulant to induce differentiation every other day. Th17 cells were incubated overnight at 37 °C for deactivation. Cells were reinoculated on 96-well plates and cocultured with gradient-diluted QL-1200186 for 1 h and then stimulated with recombinant human IL-23 (ACRO: #IL-B-H52 WS) for 0.5 h. Cells were collected, and phosphorylation of STAT3 was quantified according to the MFI.

JAK1 JH2 domain = JAK1 JH2 domain (Homo sapiens, UniProt P23458); test: JAK1 JH2 binding assay
JAK2/JAK2 = test: GM-CSF-stimulated pSTAT5 in U937 cells; type: cell-based, human
Procedure: With respect to GM-CSF-stimulated JAK2 activation in U937 cells (Cobioer Biosciences, CBP60277), after 1 h of treatment with QL-1200186, U937 cells were stimulated with GM-CSF (20 ng/mL; C003; Novoprotein, Suzhou, China) for 15 min.
The stimulations stated above were terminated with prewarmed Lyse/Fix Buffer (558,049; BD Biosciences, San Jose, CA, USA) for 10 min. Cells were stained with an anti-cluster of differentiation (CD)3 fluorescein isothiocyanate (FITC) antibody (required for PBMCs but not for the other cell types), washed, and permeabilized on ice using Perm III Buffer (558,050; BD Biosciences) prior to staining with an Alexa Fluor 647 anti-phosphorylated (p)STAT5 (pY694) antibody for 30 min and analyzed by flow cytometry. Phosphorylation of STAT5 was quantified by the median fluorescence intensity (MFI) after gating on the CD3-positive population.

[2] = rats, data not shown
TYK2/JAK1 [3] = test: IFNα HEK293 (HEK-Blue IFN-α/β) reporter gene assay; type: cell-based, human
Procedure: HEK-Blue™ IFN-α/β cells were used to determine the activity of QL-1200186. After 24 h of incubation with QL-1200186, HEK-Blue™ IFN-α/β cells (Invivogen; NKB-IFNAB) were stimulated with human IFNα (200 U/mL; catalog number: 11200–2; PBL Assay Science; Piscataway, NJ, USA) for 6 h. Stimulation of HEK-Blue IFN-α/β cells with human IFNα activates the JAK/STAT/ISGF3 pathway and subsequently induces the production of SEAP. Levels of SEAP in the supernatant were readily assessable using QUANTI-Blue™ Solution (InvivoGen, San Diego, CA, USA).

logD7.4 = type: physicochemical; settings: pH 7.4
CYP450 1A2 = CYP450 1A2 (Homo sapiens, UniProt P05177); type: in vitro ADME
Procedure: The ADME properties of QL-1200186 in vitro were measured by the following assays: Caco-2 permeability assay, CYP inhibition assay, protein binding assay, and liver microsome assay. Each assay was performed as previously described.

[4] = system: panel of 207 kinase proteins; test: Kinase selectivity panel, ADP-Glo kinase assay; type: biochemical, human; settings: 1 μM
Procedure: The selectivity of QL-1200186 was measured using a panel of 207 kinase proteins. QL-1200186 (final concentration = 1 μM) was placed in a 384-well plate. Different kinase solutions were configured in kinase buffer, HEPES (50 mM), MgCl2 (10 mM), 0.01% Brij, dithiothreitol (2 mM), and then transferred to 384-well plates. After incubation for 10 min at RT, the substrate and adenosine triphosphate were added, and the reaction was allowed to continue for 60 min. Kinase selectivity was determined by the ADP-Glo™ Kinase Assay (V9103; Promega, Fitchburg, WI, USA). Finally, a microplate reader (BMG Labtech, Ortenberg, Germany) was used to measure the luminescence signal. After data analysis, heatmaps and kinase selection trees were drawn using Prism 8.0.2 (GraphPad, La Jolla, CA, USA) and KinMap (www.kinmap.org/), respectively.

[5] = biological target: T1, human TYK2 pseudokinase domain (JH2) (Homo sapiens, UniProt P29597); test: TYK2 pseudokinase domain (JH2) binding assay, HTRF tracer competition
T1 construct: was added to the recombinant TYK2 pseudokinase domain
Procedure: An assay that measures the ability of a compound to bind to the TYK2 pseudokinase domain through competition with a tracer was employed. First, human polyhistidine-tag (his-tagged) TYK2 pseudokinase was added to different concentrations of QL-1200186. […] After 1 h at RT, the homogeneous time-resolved fluorescence (HTRF) signal was measured on a plate reader (Envision™; PerkinElmer, Waltham, MA, USA).

JAK2 (JH1) = JAK2 (JH1) (Homo sapiens, UniProt O60674); test: JH1 kinase assay, HTRF KinEASE-TK; type: biochemical
Procedure: (§1) We measured the ability of a compound to bind to JAK1/2/3 and the TYK2 JH1 domain by using HTRF® KinEASE™-TK kits (Millipore, Bedford, MA, USA). JAK1/2/3 and the TYK2 JH1 domain in assay buffer were added to various concentrations of QL-1200186 and incubated for 15 min at RT. Then, the plate was incubated with the biotin-labeled TK substrate and adenosine triphosphate for 45 min at RT. Next, SA-XL665 and TK antibody-Eu3 were added to the detection buffer and incubated for 1 h at RT. The HTRF signal was measured on a plate reader (Envision).

TYK2 JH1 domain = biological target: T2, TYK2 JH1 domain (Homo sapiens, UniProt P29597); test: JH1 kinase assay, HTRF KinEASE-TK; type: biochemical
T2 construct: JAK1/2/3 and the TYK2 JH1 domain in assay buffer were added
Procedure: as §1

JAK3 (JH1) = JAK3 (JH1) (Homo sapiens, UniProt P52333); test: JH1 kinase assay, HTRF KinEASE-TK; type: biochemical
Procedure: as §1

Sequence of JAK3 (JH1) (P52333 822-1111 limits assumed): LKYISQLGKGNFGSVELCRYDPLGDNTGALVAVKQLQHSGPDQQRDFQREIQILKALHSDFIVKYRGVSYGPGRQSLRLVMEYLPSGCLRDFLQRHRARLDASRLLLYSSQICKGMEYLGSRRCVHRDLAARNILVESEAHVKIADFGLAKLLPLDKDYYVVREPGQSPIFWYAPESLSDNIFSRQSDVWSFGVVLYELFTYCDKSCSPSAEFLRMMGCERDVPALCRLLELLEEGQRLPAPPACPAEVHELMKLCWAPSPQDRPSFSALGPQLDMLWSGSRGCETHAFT
Sequence of JAK2 (JH1) (O60674 849-1124 limits assumed): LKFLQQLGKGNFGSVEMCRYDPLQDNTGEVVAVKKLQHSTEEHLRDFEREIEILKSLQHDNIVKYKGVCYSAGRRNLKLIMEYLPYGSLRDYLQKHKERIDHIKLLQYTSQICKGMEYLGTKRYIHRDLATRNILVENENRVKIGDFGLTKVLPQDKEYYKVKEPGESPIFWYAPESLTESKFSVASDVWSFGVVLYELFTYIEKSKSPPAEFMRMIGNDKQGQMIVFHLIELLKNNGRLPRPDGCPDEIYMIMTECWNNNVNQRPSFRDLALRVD
T2 sequence (P29597 897-1176 limits assumed): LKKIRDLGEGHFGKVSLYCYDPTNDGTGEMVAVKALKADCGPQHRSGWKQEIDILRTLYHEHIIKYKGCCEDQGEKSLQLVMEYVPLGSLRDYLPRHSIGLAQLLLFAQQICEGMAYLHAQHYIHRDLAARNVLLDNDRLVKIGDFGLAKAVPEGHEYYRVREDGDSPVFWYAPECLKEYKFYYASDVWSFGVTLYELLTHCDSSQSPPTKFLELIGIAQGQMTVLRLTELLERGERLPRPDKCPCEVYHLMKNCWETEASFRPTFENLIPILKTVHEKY
T1 sequence (P29597 589-875 limits assumed): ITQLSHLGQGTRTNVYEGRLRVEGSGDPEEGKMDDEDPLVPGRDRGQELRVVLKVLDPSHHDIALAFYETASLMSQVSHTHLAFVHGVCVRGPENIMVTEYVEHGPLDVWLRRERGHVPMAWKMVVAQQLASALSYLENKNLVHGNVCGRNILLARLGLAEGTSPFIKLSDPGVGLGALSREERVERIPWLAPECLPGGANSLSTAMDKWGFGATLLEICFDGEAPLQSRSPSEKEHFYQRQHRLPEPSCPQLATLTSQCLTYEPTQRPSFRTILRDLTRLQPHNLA
Sequence of JAK1 JH2 domain (P23458 583-855 limits assumed): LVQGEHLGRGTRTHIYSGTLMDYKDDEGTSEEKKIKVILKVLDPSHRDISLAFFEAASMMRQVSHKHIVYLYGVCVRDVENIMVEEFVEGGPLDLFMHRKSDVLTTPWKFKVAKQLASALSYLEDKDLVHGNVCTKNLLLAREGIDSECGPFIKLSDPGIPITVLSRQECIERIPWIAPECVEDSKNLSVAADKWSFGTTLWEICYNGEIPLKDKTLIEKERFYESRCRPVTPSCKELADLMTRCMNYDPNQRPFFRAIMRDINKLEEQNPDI
Sequence of CYP450 1A2 (P05177 whole entry): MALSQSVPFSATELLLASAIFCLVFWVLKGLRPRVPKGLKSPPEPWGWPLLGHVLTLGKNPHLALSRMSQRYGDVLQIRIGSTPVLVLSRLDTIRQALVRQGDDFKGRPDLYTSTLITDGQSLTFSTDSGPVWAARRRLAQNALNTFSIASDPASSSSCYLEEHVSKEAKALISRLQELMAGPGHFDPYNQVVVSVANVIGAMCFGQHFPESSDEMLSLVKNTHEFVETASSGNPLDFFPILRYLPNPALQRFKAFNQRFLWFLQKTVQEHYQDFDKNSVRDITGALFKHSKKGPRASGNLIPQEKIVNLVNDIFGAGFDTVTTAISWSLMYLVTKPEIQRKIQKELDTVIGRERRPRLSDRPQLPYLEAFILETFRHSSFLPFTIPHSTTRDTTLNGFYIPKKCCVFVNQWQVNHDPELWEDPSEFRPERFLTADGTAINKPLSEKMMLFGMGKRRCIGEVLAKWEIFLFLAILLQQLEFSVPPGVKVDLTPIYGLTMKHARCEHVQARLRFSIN

**Q.** Which results are given for `CNC(=O)c1cnc2cc1Nc1cc(cc(-c3ccn(C)n3)c1OC)CCOCc1cccc(n1)N2` [QL-1200186, 5^6-methoxy-N-methyl-5^5-(1-methyl-1H-pyrazol-3-yl)-8-oxa-2,4-diaza-1(2,6),3(2,4)-dipyridina-5(1,3)-benzenacyclononaphane-3^5-carboxamide]?
**A.** differentiation and maturation of monocytes into dendritic cells (CD80, CD83, CD86 expression) (human monocytes): significantly inhibited; IC50 (TYK2/JAK1 [1]): 1.03 nM; IC50 (JAK1 JH2 domain): 9.85 nM; GM-CSF-pSTAT5 in U937 (JAK2/JAK2) inhibition (JAK2/JAK2; @10μM): no inhibition @10μM; IC50 (JAK2/JAK2; JAK2/JAK2-dependent, read-out: GM-CSF-stimulated STAT5 phosphorylation IC50): > 10000 nM; safety in toxicological studies [2]: excellent safety; IC50 (TYK2/JAK1 [3]): 3.9 nM; logD7.4 (logD7.4): 3.6; IC50 (CYP450 1A2): > 50000 nM; inhibition rates for all 207 kinases tested [4]: below 50%; Selectivity fold (TYK2/JAK1) ([5]; TYK2 JH2 over JAK1 JH2 binding): 164 fold; IC50 ([5]; recombinant TYK2 JH2 domain): 0.06 nM; IC50 (JAK2 (JH1)): > 9900 nM; Kinase assay (JH1) JAK2 IC50 (JAK2 (JH1)): did not show inhibitory activity; IC50 (TYK2 JH1 domain): > 9900 nM; Kinase assay (JH1) TYK2 IC50 (TYK2 JH1 domain): did not show inhibitory activity; IC50 (JAK3 (JH1)): > 9900 nM; Kinase assay (JH1) JAK3 IC50 (JAK3 (JH1)): did not show inhibitory activity
